{
  "source": "patent US20240066075A1",
  "about": "“METHODS AND USES OF MICROBIOME COMPOSITIONS, COMPONENTS, OR METABOLITES FOR TREATING EYE DISORDERS” (MarvelBiome, Inc., priority 2021, published 2024)",
  "tested_on": "NaIO3-treated ARPE-19 cells",
  "experiment": "NaIO3-induced degradation of ARPE-19 cells, MTT cell viability assay",
  "format": "cell-based, human",
  "details": "16 hours",
  "description": "Cell Culture: ARPE-19 passages 3-7 were used for all experiments. Cells were cultured in %-well plates in DMEM:F12 with 10% of FBS, and incubated at 37° C. with 5% CO2 humidified atmosphere. […] Cell Viability Assay: The colorimetric MTT assay was used to check cell viability. […] At the same time different MBTs, labeled 1 through 10 and summarized in FIG. 2 and Table 2 below, were given to the treatment group at a concentration of 10^6 CFU. After 16 hours of incubation, the absorbance cell viability was evaluated by spectrophotometrically using a microplate reader at 600 nm. Cell Culture: ARPE-19 passages 3-7 were used for all experiments. Cells were cultured in 96-well plates in DMEM:F12 with 10% of FBS, and incubated at 37° C. with 5% CO2 humidified atmosphere. […] Cell Viability Assay: The colorimetric MTT assay was used to check cell viability. […] In the control group, cells were treated only with DMEM:F12 (control media; labeled 'mock-treated' in FIG. 3). […] After 16 hours of incubation, the absorbance cell viability was evaluated by spectrophotometrically using a microplate reader at 600 nm. […] After 16 hours of incubation, the absorbance cell viability was evaluated by spectrophotometrically using a microplate reader at 600 nm. […] After 16 hours of incubation, the absorbance cell viability was evaluated by spectrophotometrically using a microplate reader at 600 nm.",
  "data": [
    {"smiles": "O=C(O)C(=O)[C@@H](O)[C@H](O)[C@H](O)CO", "note": "[2-keto-gluconate]", "values": [
      {"measurement": "cell viability of NaIO3-treated ARPE-19 cells compared to controls (MTT)", "setting": "1200 μg/ml NaIO3, 0.1% (w/v) of 2-keto-gluconate", "value": "improved cell viability"}
    ]},
    {"smiles": "O=C(CO)[C@@H](O)[C@H](O)[C@@H](O)C(=O)O", "note": "[5-keto-gluconate]", "values": [
      {"measurement": "cell viability of NaIO3-treated ARPE-19 cells compared to controls (MTT)", "setting": "1200 μg/ml NaIO3, all tested concentrations of 5-keto-gluconate (0.1%, 0.2%, 0.4%, 0.5% w/v)", "value": "improved cell viability"}
    ]}
  ]
}
